# Measurements reported in ChEMBL document CHEMBL1201861, “Genomics of Drug Sensitity in Cancer screening data, Wellcome Trust Sanger Institute”.
# Assays:
# COR-L279 = experiment: SANGER: Inhibition of human COR-L279 cell growth in a cell viability assay.; type: functional, cell-based; details: Homo sapiens, COR-L279
# Ca-Ski = experiment: cells; type: functional, cell-based; details: Homo sapiens;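 also: cell viability assay measuring inhibition of Ca-Ski cell growth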
# Description: SANGER: Inhibition of human Ca-Ski cell growth in a cell viability assay.
# Caov-3 cell line = experiment: cells; type: functional, cell-based; details: Homo sapiens;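 also: cell growth inhibition read out by a viability assay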
# Description: SANGER: Inhibition of human Caov-3 cell growth in a cell viability assay.
# ChaGo-K-1 = experiment: cells; type: functional, cell-based; details: Homo sapiens;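 also: growth inhibition of ChaGo-K-1 cells, read out with a cell viability assay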
# Description: SANGER: Inhibition of human ChaGo-K-1 cell growth in a cell viability assay.
# DMS-79 = experiment: cells; type: functional, cell-based, Homo sapiens; details: Homo sapiens, DMS-79
# Description: SANGER: Inhibition of human DMS-79 cell growth in a cell viability assay.
# DV-90 = experiment: cells; type: functional, cell-based; details: Homo sapiens;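 also: Read-out is a viability assay, with IC50 reflecting the drop in DV-90 cell growth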
# Description: SANGER: Inhibition of human DV-90 cell growth in a cell viability assay.
# EB2 = experiment: cells; type: functional, cell-based, Homo sapiens; details: Homo sapiens, EB2;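 also: growth inhibition of EB2 cells, read out with a cell viability assay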
# Description: SANGER: Inhibition of human EB2 cell growth in a cell viability assay.
# EW-7 = experiment: SANGER: Inhibition of human EW-7 cell growth in a cell viability assay.; type: functional, cell-based
# GAMG = experiment: cells; type: functional, cell-based; details: Homo sapiens;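 also: cell growth inhibition measured by a viability assay in the GAMG human cell line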
# Description: SANGER: Inhibition of human GAMG cell growth in a cell viability assay.
# GMS-10 = experiment: cells; type: functional, cell-based; details: Homo sapiens;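 also: growth inhibition of GMS-10 cells, read out as cell viability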
# Description: SANGER: Inhibition of human GMS-10 cell growth in a cell viability assay.
# HLE = experiment: cells; type: functional, cell-based; details: Homo sapiens;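 also: growth inhibition of human HLE cells, read out by a cell viability assay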
# Description: SANGER: Inhibition of human HLE cell growth in a cell viability assay.
# HOP-92 = experiment: cells; type: functional, cell-based; details: Homo sapiens;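 also: cell viability readout, with IC50 reflecting inhibition of HOP-92 cell growth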
# Description: SANGER: Inhibition of human HOP-92 cell growth in a cell viability assay.
# K052 = experiment: cells; type: functional, cell-based, Homo sapiens; details: Homo sapiens, K052;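 also: Read-out from a cell viability assay, IC50 reflecting suppression of K052 cell growth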
# Description: SANGER: Inhibition of human K052 cell growth in a cell viability assay.
# KARPAS-422 = experiment: cells; type: functional, cell-based, Homo sapiens; details: Homo sapiens, KARPAS-422
# Description: SANGER: Inhibition of human KARPAS-422 cell growth in a cell viability assay.
# KP-N-YN = experiment: cells; type: functional, cell-based; details: Homo sapiens;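 also: growth inhibition of KP-N-YN cells, read out with a cell viability assay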
# Description: SANGER: Inhibition of human KP-N-YN cell growth in a cell viability assay.
# KYSE-140 = experiment: cells; type: functional, cell-based; details: Homo sapiens;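 also: cell viability assay measuring growth inhibition in human KYSE-140 cells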
# Description: SANGER: Inhibition of human KYSE-140 cell growth in a cell viability assay.
# LP-1 = experiment: cells; type: functional, cell-based, Homo sapiens; details: Homo sapiens, LP-1;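 also: growth inhibition of human LP-1 cells, with the read-out taken from a cell viability assay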
# Description: SANGER: Inhibition of human LP-1 cell growth in a cell viability assay.
# LU-99A = experiment: cells; type: functional, cell-based; details: Homo sapiens;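 also: growth inhibition of LU-99A cells, read out with a cell viability assay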
# Description: SANGER: Inhibition of human LU-99A cell growth in a cell viability assay.
# MDA-MB-134-VI = experiment: cells; type: functional, cell-based, Homo sapiens; details: Homo sapiens, MDA-MB-134-VI
# Description: SANGER: Inhibition of human MDA-MB-134-VI cell growth in a cell viability assay.
# MDA-MB-468 = experiment: cells; type: functional, cell-based; details: Homo sapiens
# Description: SANGER: Inhibition of human MDA-MB-468 cell growth in a cell viability assay.
# MES-SA = experiment: cells; type: functional, cell-based; details: Homo sapiens;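 also: growth inhibition of human MES-SA cells, read out with a cell viability assay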
# Description: SANGER: Inhibition of human MES-SA cell growth in a cell viability assay.
# MFE-296 = experiment: SANGER: Inhibition of human MFE-296 cell growth in a cell viability assay.; type: functional, cell-based
# MONO-MAC-6 = experiment: cells; type: functional, cell-based, Homo sapiens; details: Homo sapiens, MONO-MAC-6;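 also: cell viability assay measuring growth inhibition of human MONO-MAC-6 cells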
# Description: SANGER: Inhibition of human MONO-MAC-6 cell growth in a cell viability assay.
# NALM-6 = experiment: cells; type: functional, cell-based, Homo sapiens; details: Homo sapiens, NALM-6;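 also: growth inhibition of NALM-6 cells, read out with a cell viability assay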
# Description: SANGER: Inhibition of human NALM-6 cell growth in a cell viability assay.
# NCI-H1734 = experiment: cells; type: functional, cell-based; details: Homo sapiens;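 also: growth inhibition of human NCI-H1734 cells, read out with a cell viability assay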
# Description: SANGER: Inhibition of human NCI-H1734 cell growth in a cell viability assay.
# NCI-H345 = experiment: cells; type: functional, cell-based, Homo sapiens; details: Homo sapiens, NCI-H345;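 also: growth inhibition of NCI-H345 cells measured with a cell viability assay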
# Description: SANGER: Inhibition of human NCI-H345 cell growth in a cell viability assay.
# NCI-H358 = experiment: cells; type: functional, cell-based; details: Homo sapiens;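 also: growth inhibition of NCI-H358 human cells, read out with a cell viability assay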
# Description: SANGER: Inhibition of human NCI-H358 cell growth in a cell viability assay.
# NUGC-3 = experiment: cells; type: functional, cell-based; details: Homo sapiens;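 also: growth inhibition of human NUGC-3 cells, read out with a cell viability assay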
# Description: SANGER: Inhibition of human NUGC-3 cell growth in a cell viability assay.
# OE33 = experiment: cells; type: functional, cell-based; details: Homo sapiens;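 also: growth inhibition of human OE33 cells, measured by a cell viability assay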
# Description: SANGER: Inhibition of human OE33 cell growth in a cell viability assay.
# OVCAR-8 = experiment: cells; type: functional, cell-based; details: Homo sapiens;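 also: growth inhibition of human OVCAR-8 cells, read out by a cell viability assay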
# Description: SANGER: Inhibition of human OVCAR-8 cell growth in a cell viability assay.
# PC-14 = experiment: cells; type: functional, cell-based; details: Homo sapiens;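 also: cell viability assay measuring inhibition of PC-14 cell growth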
# Description: SANGER: Inhibition of human PC-14 cell growth in a cell viability assay.
# SBC-5 = experiment: cells; type: functional, cell-based; details: Homo sapiens;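 also: cell viability assay read-out, IC50 is the concentration that inhibits growth of the cells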
# Description: SANGER: Inhibition of human SBC-5 cell growth in a cell viability assay.
# SIG-M5 = experiment: cells; type: functional, cell-based, Homo sapiens; details: Homo sapiens, SIG-M5;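 also: cell viability assay read-out, measuring how strongly growth of cultured human SIG-M5 cells is inhibited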
# Description: SANGER: Inhibition of human SIG-M5 cell growth in a cell viability assay.
# SK-CO-1 = experiment: cells; type: functional, cell-based; details: Homo sapiens;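 also: growth inhibition of SK-CO-1 cells, determined by a viability readout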
# Description: SANGER: Inhibition of human SK-CO-1 cell growth in a cell viability assay.
# SNU-C1 = experiment: cells; type: functional, cell-based, Homo sapiens; details: Homo sapiens, SNU-C1;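 also: growth inhibition of SNU-C1 human cells, read out by a cell viability assay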
# Description: SANGER: Inhibition of human SNU-C1 cell growth in a cell viability assay.
# SW-620 = experiment: cells; type: functional, cell-based; details: Homo sapiens;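 also: growth inhibition of human SW-620 cells, measured by a cell viability assay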
# Description: SANGER: Inhibition of human SW620 cell growth in a cell viability assay.
# T47D = experiment: cells; type: functional, cell-based; details: Homo sapiens;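 also: growth inhibition of human T47D cells, measured with a cell viability assay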
# Description: SANGER: Inhibition of human T47D cell growth in a cell viability assay.
# CWR22R = experiment: cells; type: functional, cell-based; details: Homo sapiens, 22Rv1;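 also: growth inhibition of 22Rv1 cells, read out with a cell viability assay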
# Description: SANGER: Inhibition of human 22RV1 cell growth in a cell viability assay.
# 5637 = experiment: cells; type: functional, cell-based; details: Homo sapiens
# Description: SANGER: Inhibition of human 5637 cell growth in a cell viability assay.
# 647-V = experiment: cells; type: functional, cell-based; details: Homo sapiens;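 also: growth inhibition of 647-V cells, read out with a cell viability assay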
# Description: SANGER: Inhibition of human 647-V cell growth in a cell viability assay.
# 8505C = experiment: cells; type: functional, cell-based; details: Homo sapiens
# Description: SANGER: Inhibition of human 8505C cell growth in a cell viability assay.
# A-431 = experiment: cells; type: functional, cell-based; details: Homo sapiens;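 also: growth inhibition of A-431 cells, determined with a cell viability read-out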
# Description: SANGER: Inhibition of human A431 cell growth in a cell viability assay.
# CAL-12T = experiment: cells; type: functional, cell-based; details: Homo sapiens;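 also: growth inhibition of human CAL-12T cells, read out with a cell viability assay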
# Description: SANGER: Inhibition of human CAL-12T cell growth in a cell viability assay.
# U-118-MG = experiment: cells; type: functional, cell-based; details: Homo sapiens
# Description: SANGER: Inhibition of human U-118-MG cell growth in a cell viability assay.
# YAPC = experiment: cells; type: functional, cell-based; details: Homo sapiens;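 also: growth inhibition of YAPC cells, measured with a cell viability assay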
# Description: SANGER: Inhibition of human YAPC cell growth in a cell viability assay.
# CCF-STTG1 = experiment: cells; type: functional, cell-based; details: Homo sapiens;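 also: growth inhibition of human CCF-STTG1 cells, determined with a cell viability read-out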
# Description: SANGER: Inhibition of human CCF-STTG1 cell growth in a cell viability assay.
smiles,measurement,setting,value
COc1ccc(-c2cc3nccn3c(Nc3ncccc3C(N)=O)n2)cc1OC,IC50,COR-L279,4.2 µM
same,IC50,Ca-Ski,4.55 µM
same,IC50,Caov-3 cell line,> 8 µM
same,IC50,ChaGo-K-1,> 8 µM
same,IC50,DMS-79,> 8 µM
same,IC50,DV-90,> 8 µM
same,IC50,EB2,0.837 µM
same,IC50,EW-7,1.98 µM
same,IC50,GAMG,> 8 µM
same,IC50,GMS-10,> 8 µM
same,IC50,HLE,3.23 µM
same,IC50,HOP-92,> 8 µM
same,IC50,K052,> 8 µM
same,IC50,KARPAS-422,2.5 µM
same,IC50,KP-N-YN,> 8 µM
same,IC50,KYSE-140,3.75 µM
same,IC50,LP-1,4.02 µM
same,IC50,LU-99A,> 8 µM
same,IC50,MDA-MB-134-VI,> 8 µM
same,IC50,MDA-MB-468,> 8 µM
same,IC50,MES-SA,0.96 µM
same,IC50,MFE-296,> 8 µM
same,IC50,MONO-MAC-6,0.963 µM
same,IC50,NALM-6,0.417 µM
same,IC50,NCI-H1734,4.86 µM
same,IC50,NCI-H345,> 8 µM
same,IC50,NCI-H358,0.689 µM
same,IC50,NUGC-3,> 8 µM
same,IC50,OE33,> 8 µM
same,IC50,OVCAR-8,> 8 µM
same,IC50,PC-14,> 8 µM
same,IC50,SBC-5,> 8 µM
same,IC50,SIG-M5,0.848 µM
same,IC50,SK-CO-1,> 8 µM
same,IC50,SNU-C1,> 8 µM
same,IC50,SW-620,3.31 µM
same,IC50,T47D,> 8 µM
same,IC50,CWR22R,> 8 µM
same,IC50,5637,> 8 µM
same,IC50,647-V,7.3 µM
same,IC50,8505C,1.77 µM
same,IC50,A-431,1.73 µM
same,IC50,CAL-12T,0.496 µM
same,IC50,U-118-MG,6.78 µM
same,IC50,YAPC,> 8 µM
same,IC50,CCF-STTG1,7.24 µM
OC[C@H](Cc1ccccc1)Nc1nc(Oc2ccc3c(c2)CCC3)nc2c1ncn2Cc1ccc(-c2ccccc2)cc1,IC50,COR-L279,> 10.2 µM
same,IC50,Ca-Ski,> 10.2 µM
same,IC50,Caov-3 cell line,> 10.2 µM
same,IC50,ChaGo-K-1,> 10.2 µM
same,IC50,DMS-79,> 10.2 µM
same,IC50,DV-90,> 10.2 µM
same,IC50,EB2,> 10.2 µM
same,IC50,EW-7,> 10.2 µM
same,IC50,GAMG,> 10.2 µM
same,IC50,GMS-10,> 10.2 µM
same,IC50,HLE,5.66 µM
same,IC50,HOP-92,> 10.2 µM
same,IC50,K052,> 10.2 µM
same,IC50,KARPAS-422,4.93 µM
same,IC50,KP-N-YN,> 10.2 µM
same,IC50,KYSE-140,7.49 µM
same,IC50,LP-1,> 10.2 µM
same,IC50,LU-99A,> 10.2 µM
same,IC50,MDA-MB-134-VI,> 10.2 µM
same,IC50,MDA-MB-468,> 10.2 µM
same,IC50,MES-SA,> 10.2 µM
same,IC50,MFE-296,> 10.2 µM
same,IC50,MONO-MAC-6,> 10.2 µM
same,IC50,NALM-6,3.51 µM
same,IC50,NCI-H1734,> 10.2 µM
same,IC50,NCI-H345,> 10.2 µM
same,IC50,NCI-H358,> 10.2 µM
same,IC50,NUGC-3,> 10.2 µM
same,IC50,OE33,> 10.2 µM
same,IC50,OVCAR-8,> 10.2 µM
same,IC50,PC-14,> 10.2 µM
same,IC50,SBC-5,> 10.2 µM
same,IC50,SIG-M5,0.654 µM
same,IC50,SK-CO-1,> 10.2 µM
same,IC50,SNU-C1,4.22 µM
same,IC50,SW-620,3.16 µM
same,IC50,T47D,> 10.2 µM
same,IC50,CWR22R,> 10.2 µM
same,IC50,5637,4.18 µM
same,IC50,647-V,> 10.2 µM
same,IC50,8505C,4.57 µM
same,IC50,A-431,3.32 µM
same,IC50,CAL-12T,2.48 µM
same,IC50,U-118-MG,> 10.2 µM
same,IC50,YAPC,> 10.2 µM
same,IC50,CCF-STTG1,> 10.2 µM
CCCCCCCCCCCC1=C(O)C(=O)C=C(O)C1=O [EMBELIN],IC50,COR-L279,> 32 µM
same,IC50,Ca-Ski,18.2 µM
same,IC50,Caov-3 cell line,> 32 µM
same,IC50,ChaGo-K-1,7.08 µM
same,IC50,DMS-79,> 32 µM
same,IC50,DV-90,29.9 µM
same,IC50,EB2,6.17 µM
same,IC50,EW-7,23.2 µM
same,IC50,GAMG,9.09 µM
same,IC50,GMS-10,23 µM
same,IC50,HLE,5.93 µM
same,IC50,HOP-92,7.88 µM
same,IC50,K052,29 µM
same,IC50,KARPAS-422,20.7 µM
same,IC50,KP-N-YN,> 32 µM
same,IC50,KYSE-140,5.04 µM
same,IC50,LP-1,> 32 µM
same,IC50,LU-99A,> 32 µM
same,IC50,MDA-MB-134-VI,> 32 µM
same,IC50,MDA-MB-468,> 32 µM
same,IC50,MES-SA,16.5 µM
same,IC50,MFE-296,14.4 µM
same,IC50,MONO-MAC-6,21.8 µM
same,IC50,NALM-6,9.09 µM
same,IC50,NCI-H1734,15 µM
same,IC50,NCI-H345,> 32 µM
same,IC50,NCI-H358,11.1 µM
same,IC50,NUGC-3,9.18 µM
same,IC50,OE33,13.3 µM
same,IC50,OVCAR-8,11.3 µM
same,IC50,PC-14,15.6 µM
same,IC50,SBC-5,> 32 µM
same,IC50,SIG-M5,1.31 µM
same,IC50,SK-CO-1,13.6 µM
same,IC50,SNU-C1,10.3 µM
same,IC50,SW-620,28.8 µM
same,IC50,T47D,> 32 µM
same,IC50,CWR22R,22.5 µM
same,IC50,5637,13.2 µM
same,IC50,647-V,24.5 µM
same,IC50,8505C,14.1 µM
same,IC50,A-431,5.76 µM
same,IC50,CAL-12T,9.73 µM
same,IC50,U-118-MG,29.1 µM
same,IC50,YAPC,> 32 µM
same,IC50,CCF-STTG1,14 µM
C/C(=C\c1csc(C)n1)[C@@H]1C[C@@H]2O[C@]2(C)CCC[C@H](C)[C@H](O)[C@@H](C)C(=O)C(C)(C)[C@@H](O)CC(=O)O1 [PATUPILONE],IC50,COR-L279,0.00927 µM
same,IC50,Ca-Ski,0.00385 µM
same,IC50,Caov-3 cell line,0.0139 µM
same,IC50,ChaGo-K-1,0.00961 µM
same,IC50,DMS-79,> 0.032 µM
same,IC50,DV-90,0.0146 µM
same,IC50,EB2,0.00369 µM
same,IC50,EW-7,0.00225 µM
same,IC50,GAMG,0.00178 µM
same,IC50,GMS-10,> 0.032 µM
same,IC50,HLE,8.26e-05 µM
same,IC50,HOP-92,> 0.032 µM
same,IC50,K052,0.00584 µM
same,IC50,KARPAS-422,0.0106 µM
same,IC50,KP-N-YN,> 0.032 µM
same,IC50,KYSE-140,0.00123 µM
same,IC50,LP-1,> 0.032 µM
same,IC50,LU-99A,0.00533 µM
same,IC50,MDA-MB-134-VI,> 0.032 µM
same,IC50,MDA-MB-468,0.00175 µM
same,IC50,MES-SA,0.00198 µM
same,IC50,MFE-296,0.00268 µM
same,IC50,MONO-MAC-6,0.0174 µM
same,IC50,NALM-6,0.00218 µM
same,IC50,NCI-H1734,0.016 µM
same,IC50,NCI-H345,> 0.032 µM
same,IC50,NCI-H358,0.00248 µM
same,IC50,NUGC-3,0.00116 µM
same,IC50,OE33,0.00763 µM
same,IC50,OVCAR-8,0.00106 µM
same,IC50,PC-14,0.00421 µM
same,IC50,SBC-5,0.000912 µM
same,IC50,SIG-M5,0.000169 µM
same,IC50,SK-CO-1,0.00913 µM
same,IC50,SNU-C1,> 0.032 µM
same,IC50,SW-620,0.000648 µM
same,IC50,T47D,> 0.032 µM
same,IC50,CWR22R,0.00841 µM
same,IC50,5637,0.000638 µM
same,IC50,647-V,0.00242 µM
same,IC50,8505C,0.000451 µM
same,IC50,A-431,< 0.000125 µM
same,IC50,CAL-12T,0.000239 µM
same,IC50,U-118-MG,0.018 µM
same,IC50,YAPC,> 0.032 µM
same,IC50,CCF-STTG1,0.00583 µM
